In PubChem BioAssay (NCI):
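Each compound was tested at five concentrations against cells in 96-well plates for 48 hours. Abbreviation: GI50, concentration required for 50% inhibition of growth. At the TGI there is no net growth.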

Columns and labels:
Test in all cases: DTP human tumour cell line panel, 48 h
[1] = tested on: ACHN renal
[2] = tested on: EKVX NSCLC
[3] = tested on: RXF 393 renal
[4] = tested on: HOP-62 NSCLC
[5] = tested on: SNB-75 CNS
[6] = tested on: LOX IMVI melanoma
[7] = tested on: DU-145 prostate
[8] = tested on: SK-MEL-28 melanoma
[9] = tested on: BT-549 breast
[10] = tested on: OVCAR-3 ovarian

SMILES	TGI [1]	TGI [2]	TGI [3]	TGI [4]	TGI [5]	TGI [6]	TGI [7]	TGI [8]	TGI [9]	TGI [10]	GI50 [1]	GI50 [2]	GI50 [3]	GI50 [5]	GI50 [6]	GI50 [7]	GI50 [8]	GI50 [9]	GI50 [10]
Cc1nn(-c2cc(Cl)ccc2[N+](=O)[O-])c(C)c1Cl	> 100 µM	> 100 µM	76 µM	> 100 µM	> 100 µM	> 100 µM	> 100 µM	> 100 µM	> 100 µM	> 100 µM									
Brc1ccc2c(-c3csc(-c4c[nH]c5cc(Br)ccc45)n3)c[nH]c2c1	> 100 µM	> 100 µM	77.1 µM	> 100 µM	66.1 µM	> 57.1 µM	47.3 µM	> 100 µM	> 100 µM	> 100 µM									
Cc1cn(C(C)OCCN2C(=O)c3ccccc3C2=O)c(=O)[nH]c1=O (configuration not stated)	> 100 µM	> 100 µM	> 100 µM	> 100 µM	> 100 µM	> 100 µM	> 100 µM	> 100 µM	> 100 µM	> 100 µM									
NC(N)=NS(=O)(=O)c1ccc(NC(=O)c2ccc3nc4ccccc4c(Nc4ccc(S(=O)(=O)N=C(N)N)cc4)c3c2)cc1	> 100 µM	> 100 µM	> 100 µM	> 100 µM	> 100 µM	> 100 µM	> 100 µM	> 100 µM	> 100 µM	> 100 µM									
CSc1nc2c(c(=O)n1C)N=C(c1ccccc1)[C@H](C(CC(=O)c1ccccc1)c1ccccc1)C(c1ccccc1)N2 (some centres not stated)	> 100 µM	> 100 µM	> 100 µM	> 100 µM	> 100 µM	> 100 µM	> 100 µM	> 100 µM	> 100 µM	> 100 µM									
c1ccc2c3c(c(N4CCOCC4)nc2c1)CCCC3	> 100 µM	63.8 µM	46.8 µM	> 100 µM	83.1 µM	> 100 µM	> 100 µM	> 100 µM	> 100 µM	> 100 µM									
CCN1CCC(O)(C(C(=O)O)c2ccccc2)CC1 (configuration not stated)	> 100 µM	> 100 µM	> 100 µM	> 100 µM	> 100 µM	> 100 µM	> 100 µM	> 100 µM	> 100 µM	> 100 µM									
CNC(=O)N(CCC#N)[C@H]1CCCC[C@@H]1N(C(=O)NC)c1ccccc1	> 100 µM	> 100 µM	> 100 µM	> 100 µM	> 100 µM	> 100 µM	> 100 µM	> 100 µM	> 100 µM	> 100 µM									
O=c1oc2cc(O)ccc2c(O)c1C(c1ccc(C(c2c(O)c3ccc(O)cc3oc2=O)c2c(O)c3ccc(O)cc3oc2=O)cc1)c1c(O)c2ccc(O)cc2oc1=O		> 100 µM	> 100 µM	> 100 µM	> 100 µM	> 100 µM	> 100 µM	> 100 µM	> 100 µM	> 100 µM									
CC(=O)OC/C=C(/C=C/CNC1CCCCC1)OC(C)=O	30.1 µM	30.1 µM	32.5 µM	31.1 µM	93.6 µM	37.5 µM	31.6 µM	30.9 µM	31.3 µM	37.7 µM									
CC1(C)OCC2OC3([C@H]4OC(C)(C)O[C@@H]4CO)OC(C)(C)OC3C2O1 (some centres not stated)	> 100 µM	> 100 µM	> 100 µM	> 100 µM	> 100 µM	> 100 µM	> 100 µM	> 100 µM	> 100 µM	> 100 µM									
N#Cc1c(-c2ccc(F)cc2)nc(N/N=C/c2c[nH]c3ccccc23)nc1N1CCOCC1	30.7 µM	86.9 µM	3.97 µM		38.4 µM	11.2 µM	> 100 µM	4.04 µM	30.9 µM	35 µM	2.24 µM	5.44 µM	1.19 µM	3.45 µM	3.33 µM	2.9 µM	1.92 µM	5.43 µM	11.5 µM
C=C1C(=O)O[C@@]23C1CC[C@@H](C)C2CC[C@@]1(C)OC31 (some centres not stated)	27.1 µM	30.5 µM	39.9 µM	39.3 µM	8.52 µM	26.6 µM	35.5 µM	22.6 µM	23.7 µM	13.4 µM									
Cc1c2ncccc2cc2oc3ccccc3c(=O)c12	> 100 µM	> 100 µM	> 100 µM	> 100 µM	> 100 µM	> 100 µM	> 100 µM	> 100 µM	> 100 µM	> 100 µM									
O=c1c2ccccc2nc(Nc2cccc(Cl)c2)n1/N=C/C=C/c1ccccc1	> 100 µM	> 100 µM	> 100 µM	> 100 µM	> 100 µM	> 100 µM	> 100 µM	> 100 µM	> 100 µM	> 100 µM									
O=C1CSC(c2cccs2)N1c1nc2cc3sc(N4C(=O)CSC4c4cccs4)nc3cc2s1 (configuration not stated)	> 50 µM	> 50 µM	> 50 µM	> 50 µM	> 50 µM	> 50 µM	> 50 µM	> 50 µM	> 50 µM	> 50 µM									
COc1cc(CN2CCCCC2)cc2cc(C(=O)O)c(=O)oc12	> 100 µM	> 100 µM	> 100 µM	> 100 µM	> 100 µM	> 100 µM	> 100 µM	> 100 µM	> 100 µM	> 100 µM									
